Assay results: patent US20220323441A1, “THERAPEUTIC FOR GOUT OR HYPERURICEMIA” (Nippon Chemiphar Co., Ltd., priority 2019, published 2022)
Read-outs that look alike come from different tables or passages of the source.

Columns and labels:
serum uric acid level [1] = assay: Example 1, action of lowering serum uric acid level in healthy adult males; assay type: in vivo
From the text: The effect of gradually lowering the blood uric acid level which is achieved by administering the pharmaceutical composition provided by the present invention may be confirmed, for example, when a maximum rate of decrease in a blood uric acid level on the first day of the administration ([(pre-administration uric acid level−minimum post-administration uric acid level on first day of administration)/pre-administration uric acid level]×100) is about 35% or less (for example, 1 to 35% decrease, 10 to 30% decrease, 10 to 25% decrease, 10 to 20% decrease, or 15 to 25% decrease); and/or the maximum rate of decrease in a blood uric acid level on the seventh day of the administration ([(pre-administration uric acid level−minimum post-administration uric acid level on the seventh day of administration)/pre-administration uric acid level]×100) is about 55% or less (for example, 1 to 55% decrease, 10 to 50% decrease, 15 to 45% decrease, 20 to 45% decrease, 20 to 40% decrease, or 20 to 35% decrease), the maximum rates of decrease being determined by continuously administering the pharmaceutical composition provided by the present invention to a healthy adult (for example, a male) for 7 days and measuring the blood uric acid levels before and after the administration.
The blood uric acid level (blood uric acid concentration) may be measured by a known uricase-peroxidase method.
80 mg of Compound 14 was repeatedly administered to 6 healthy adult males once daily for 7 days using solid dispersion capsules of Formulation Example 1, and the action of lowering a serum uric acid level was examined. For comparative reference, the results are shown in FIG. 9 together with the result of a case described in Non Patent Literature 3 in which febuxostat (40 mg) was used.

[2] = Particle size distribution of amorphous Compound 14 (laser diffraction); assay type: physicochemical; conditions: amorphous Compound 14, spray dried; dispersed in 0.2% Aerosol OT aqueous solution
Method: A volume average particle size (D50) of the obtained amorphous Compound 14 was measured with a Shimadzu laser diffraction type particle size distribution measuring device SALD-2200 using a dispersion obtained by adding about 2 mg of a sample to a 0.2% Aerosol OT aqueous solution and irradiating the solution with ultrasonic waves for 30 seconds for dispersion. Shimadzu WingSALD-2200 version 1.02 software was used for data collection and analysis. […] The volume average particle size (D50) of amorphous Compound 14 obtained from the particle size distribution was 2.949 μm.

serum uric acid level [3] = conditions: febuxostat 40 mg; about 15 hours after the administration; cited from earlier work

Compound | course of serum uric acid level throughout the administration period (serum uric acid level [1]; 20 mg once daily for 7 days, solid dispersion capsules of Formulation Example 1) | course of serum uric acid level throughout the administration period (serum uric acid level [1]; 40 mg once daily for 7 days, capsules containing micronized Compound 14) | course of serum uric acid level throughout the administration period (serum uric acid level [1]; 80 mg once daily for 7 days, solid dispersion capsules of Formulation Example 1) | maximum rate of decrease in a blood uric acid level on the seventh day (serum uric acid level [1]; 80 mg once daily for 7 days, solid dispersion capsules of Formulation Example 1, about 8 hours after the administration) | maximum rate of decrease in a blood uric acid level on the first day of the administration (serum uric acid level [1]; 80 mg once daily, solid dispersion capsules of Formulation Example 1, 6 healthy adult males, at 12 hours after the administration) | volume average particle size (D50) [2] [μm] | maximum rate of decrease in a blood uric acid level on the first day of the administration (serum uric acid level [3])
N#Cc1cc(-c2nc3c(O)ncnc3s2)ccc1Oc1ccccc1 [Compound 14, 2-(3-Cyano-4-phenoxyphenyl)-7-hydroxythiazolo[5,4-d]pyrimidine] | gradually decreased over time | gradually decreased over time | gradually decreased over time | about 30% | about 17% | 2.949 | 
Cc1nc(-c2ccc(OCC(C)C)c(C#N)c2)sc1C(=O)O [febuxostat] |  |  |  |  |  |  | about 35%
